Experimental data from patent US9469584B2, “Method for producing butanol using extractive fermentation” (Butamax Advanced Biofuels LLC, priority 2013, dated 2016).
Counter-ions that a name gives are not always drawn.

System: ethanologen (Ethanol Red)
Assay: not given
Conditions: not given

Compound | Glucose (g/L) 5.00 hrs Run 1 | Glucose (g/L) 5.00 hrs Run 2 | Glucose (g/L) […] Run 1 | Glucose (g/L) […] Run 2
CCCCC(CC)COP(=O)(O)OCC(CC)CCCC (stereo not drawn) [Bis(2-ethylhexyl) phosphate] | 20.3/20.6 g/L | 20.3/20.6 g/L | 20.0/20.2 g/L | 20.0/20.2 g/L
nonyl phenol | 20.3/20.3 g/L | 20.3/20.3 g/L | 20.6/20.0 g/L | 20.6/20.0 g/L

Same assay, conditions: Saccharomyces cerevisiae

Compound | Glucose (g/L) 5.50 hrs Run 1 | Glucose (g/L) 5.50 hrs Run 2 | Glucose (g/L) […] Run 1 | Glucose (g/L) […] Run 2
CCCCC(CC)COC(=O)CCCCC(=O)OCC(CC)CCCC (stereo not drawn) [bis(2-ethylhexyl)adipate] | 0.0/0.0 g/L | 0.0/0.0 g/L | 0.0/0.0 g/L | 0.0/0.0 g/L

System: not listed separately
Assay: Density of the pure solvent
Type: physicochemical
Conditions: not given
Description: Wt % of isobutanol in each layer was reported. The density of the pure solvent was also reported. […] Wt. iBuOH (mg) was calculated by wt % i-BuOH×0.5×density of pure solvent. For the aqueous solutions the density of both the pure water and salt solutions were assumed to be 1.0 g/ml. Kd was calculated both from concentration of i-BuOH in the organic/concentration of i-BuOH in the aqueous layer. It was calculated both from the w/w data and w/v data. The sum of the amounts of isobutanol found in both layers was calculated as a check on the data.

Compound | density [g/mL]
CCCCCCCCOC(=O)c1ccccc1C(=O)OCCCCCCCC [Dioctyl phthlate] | 0.985
CCCCCl [chlorobutane] | 0.886
Xylene | 0.879
nonyl phenol | 0.937

Same assay, conditions: pure solvent

density [g/mL] | Compound
0.833 | CCCCC(CC)CO (stereo not drawn) [2-Ethyl-1-hexanol]
0.836 | CCCCCCCCC(CO)CCCCCC (stereo not drawn) [2-Hexyl-1-decanol (Isofol 16), 2-Hexyl-1-decanol]
0.833 | CCCCCCC(CO)CCCC (stereo not drawn) [2-butyl-1-octanol]
0.824 | CC(CCO)CC(C)(C)C (stereo not drawn) [3,5,5-trimethyl-1-hexanol]
0.828 | CC(C)CCCC(C)CCO (stereo not drawn) [3,7-dimethyl-1-octanol]
0.944 | CCCCC(CC)COC(=O)/C=C\C(=O)OCC(CC)CCCC (stereo not drawn) [Bis(2-ethylhexyl) maleate]
0.89 | CC(C)=CCCC(C)=CCCC(C)=CCO [Farnesol]
0.793 | CCCCCCOCCCCCC [Hexyl Ether]
0.914 | CCCCC(CC)COC(=O)CCCCCCCCC(=O)OCC(CC)CCCC (stereo not drawn) [bis(2-ethylhexyl)sebacate]
0.855 | CCCCCCCCCCCC(=O)OCCCC [butyl dodecanoate]
1.04 | CCCCCCOC(=O)c1ccccc1O [hexyl salicylate]
0.78 | CC(C)CCOCCC(C)C [i-Amyl Ether]
0.849 | CCCCCCCC/C=C\CCCCCCCCO [oleyl alcohol, reference compound]
1.2 | CC1COC(=O)O1 (stereo not drawn) [propylene carbonate]

Compound | density [g/mL]
CCCCC(CC)COP(=O)(O)OCC(CC)CCCC (stereo not drawn) [Bis(2-ethylhexyl) phosphate] | 0.965
CCCCC(CC)COC(=O)CCCCC(=O)OCC(CC)CCCC (stereo not drawn) [bis(2-ethylhexyl)adipate] | 0.925
CCCCCCCCOC(=O)c1ccc(C(=O)OCCCCCCCC)cc1 [dioctyl terephthalate] | 0.986
